Among the data in patent publication US20260022143A1, “Cyclic Peptide Inhibitors of IL-23” (JANSSEN PHARMACEUTICA NV, priority 2022, published 2026) are IC50 and EPSA values, retold here.

One data set concerns the target T1, IL-23R (Homo sapiens, UniProt Q5VWK5).
T1 construct: host or cells: HEK293
T1 sequence (Q5VWK5 24-629): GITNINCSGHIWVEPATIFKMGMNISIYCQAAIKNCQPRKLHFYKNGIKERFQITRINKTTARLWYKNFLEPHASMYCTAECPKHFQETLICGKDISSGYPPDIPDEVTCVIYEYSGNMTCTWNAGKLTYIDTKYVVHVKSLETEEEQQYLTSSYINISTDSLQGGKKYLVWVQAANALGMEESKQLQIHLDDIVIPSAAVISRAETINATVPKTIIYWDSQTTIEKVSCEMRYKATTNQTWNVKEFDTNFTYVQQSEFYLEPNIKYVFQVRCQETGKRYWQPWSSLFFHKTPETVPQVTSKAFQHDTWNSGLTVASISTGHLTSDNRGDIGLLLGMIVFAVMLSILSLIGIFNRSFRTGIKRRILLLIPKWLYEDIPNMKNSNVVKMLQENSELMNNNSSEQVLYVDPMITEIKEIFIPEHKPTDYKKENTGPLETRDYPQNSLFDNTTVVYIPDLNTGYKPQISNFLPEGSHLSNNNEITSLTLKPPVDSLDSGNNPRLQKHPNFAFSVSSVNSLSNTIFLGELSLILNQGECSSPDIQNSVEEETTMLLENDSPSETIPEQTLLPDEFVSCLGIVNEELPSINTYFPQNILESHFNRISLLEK
As to the kind of experiment: IL23R Reporter Assay. It counts as cell-based. As to conditions: HEK293 cells containing IL-23R, IL-12RP1 and STAT-inducible firefly luciferase reporter; 10 ng/mL IL-23 (EC90); 5 h at 37° C.; read-out: IL23R Reporter Assay. On the technique in general: In a reporter assay the amount or activity of a reporter protein is the signal.

The nature of data set [1]: Exposed Polar Surface Area (EPSA). The following applies: SFC on Chirex 3014 column, sample 1 mM DMSO stock. It counts as physicochemical. In a few lines: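 Retention-based polarity: supercritical CO2 with 20 mM ammonium formate in MeOH (5–60%, 20%/min), Chirex 3014 column, 35 °C. Calibrated against 8 standards to give EPSA (Å^2); each sample measured twice.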

Each structure is given as a SMILES string. Like-named read-outs stand apart in the source and are kept apart here. Starred links: 1 amine or outer side, 2 acyl side, 3 side chain; linkers in the order of their positions; H or OH if unused. Positions of bridges follow the written chain, without caps; N, C: chain ends. Non-standard residues stand in square brackets, D forms with d. Residues, ends and D or L forms follow the SMILES beside them. ξ: configuration not given here. *: point of attachment. Me3N+(CH2)2O(CH2)2O(CH2)2CO = C[N+](C)(C)CCOCCOCCC(=O)*; CH2CH2OCH2CH2OCH2CH2NMe3+ = C[N+](C)(C)CCOCCOCC*; Phe(4-N3) = [N-]=[N+]=Nc1ccc(C[C@H](N)C(=O)O)cc1; Trp(7-Me) = Cc1cccc2c(C[C@H](N)C(=O)O)c[nH]c12; Abu(4-yl) = O=C([C@H](CC[*:3])N[*:1])[*:2]; dLys(Me3) = C[N+](C)(C)CCCC[C@@H](N)C(=O)O; 3Pal(5-Me) = Cc1cncc(C[C@H](N)C(=O)O)c1; 2Nal = N[C@@H](Cc1ccc2ccccc2c1)C(=O)O; AEF = NCCOc1ccc(C[C@H](N)C(=O)O)cc1; dNMeY = CN[C@H](Cc1ccc(O)cc1)C(=O)O; 3Pal = N[C@@H](Cc1cccnc1)C(=O)O; Cit = NC(=O)NCCC[C@H](N)C(=O)O; Lys(Me) = CNCCCC[C@H](N)C(=O)O; αMeL = CC(C)C[C@](C)(N)C(=O)O; Pen = CC(C)(S)[C@H](N)C(=O)O; ξLys(Me) = CNCCCCC(N)C(=O)O; Thp = NC1(C(=O)O)CCOCC1; X3 = C[N+](C)(C)CCCCC*; Sar = CNCC(=O)O

Regarding `CC(=O)N(C)CCCC[C@@H]1NC(=O)[C@H](Cc2ccc3ccccc3c2)NC(=O)[C@H]([C@@H](C)O)NC(=O)[C@H](CC(=O)N(C)C)NC(=O)[C@@H](NC(=O)CCOCCOCC[N+](C)(C)C)C(C)(C)SSC(C)(C)[C@@H](C(=O)N[C@@H](Cc2ccc(OCCCCC[N+](C)(C)C)cc2)C(=O)N[C@@H](Cc2ccc3ccccc3c2)C(=O)NC2(C(=O)N[C@@H](CCCCN(C)C(C)=O)C(=O)N[C@@H](CC(N)=O)C(=O)N[C@@H](Cc3cccnc3)C(=O)N(C)CC(=O)N(C)C)CCOCC2)NC1=O` [compound 509, cPEG3aCO-Pen(3)-N(N(Me)2)-T-2Nal-K(NMeAc)-Pen(3)-TMAPF-2Nal-THP-K(NMeAc)-N-3Pya-Sar-CONMe2] ({Me3N+(CH2)2O(CH2)2O(CH2)2CO}-[Pen]D(NMe2)T[2Nal][Lys(Me)](Ac)[Pen]Y(X3)[2Nal][Thp][Lys(Me)](Ac)N[3Pal][Sar]-NMe2; disulfide 1-6), the IC50 on IL-23R stood at 32 nM. Moreover, the EPSA in data set [1] (read-out: EPSA) was 161 A^2.
Taken in the same sequence, the figures for `CNC(=O)C[C@H](NC(=O)[C@H](CCCCN(C)C(C)=O)NC(=O)C1(NC(=O)[C@H](Cc2ccc3ccccc3c2)NC(=O)[C@H](Cc2ccc(OCCCCC[N+](C)(C)C)cc2)NC(=O)[C@H]2NC(=O)[C@H](CCCCN(C)C(C)=O)NC(=O)[C@H](Cc3c[nH]c4c(C)cccc34)NC(=O)[C@H]([C@@H](C)O)NC(=O)[C@H](CC(=O)N(C)C)NC(=O)[C@@H](NC(=O)CCOCCOCC[N+](C)(C)C)C(C)(C)SSC2(C)C)CCOCC1)C(=O)N[C@@H](Cc1cccnc1)C(=O)N(C)CC(=O)N(C)C` [compound 560, cPEG3aCO-Pen(3)-N(N(Me)2)-T-7MeW-K(NMeAc)-Pen(3)-TMAPF-2Nal-THP-k(NMeAc)-N(NMe)-3Pya-Sar-CON(Me)2] ({Me3N+(CH2)2O(CH2)2O(CH2)2CO}-[Pen]D(NMe2)T[Trp(7-Me)][Lys(Me)](Ac)[Pen]Y(X3)[2Nal][Thp][Lys(Me)](Ac)D(NHMe)[3Pal][Sar]-NMe2; disulfide 1-6) were 3.4 nM and 154 A^2.
The corresponding values for `CC(=O)N[C@H](CCCNC(=N)N)C(=O)N[C@@H]1C(=O)N[C@@H](CC(N)=O)C(=O)N[C@@H]([C@@H](C)O)C(=O)N[C@@H](Cc2c[nH]c3c(C)cccc23)C(=O)N[C@@H](CCCNC(N)=O)C(=O)N[C@H](C(=O)N[C@@H](Cc2ccc(OCCN)cc2)C(=O)N[C@@H](Cc2ccc3ccccc3c2)C(=O)N[C@@](C)(CC(C)C)C(=O)N[C@@H](CCC(=O)O)C(=O)N[C@@H](CC(N)=O)C(=O)N[C@H](CCCCN)C(=O)N(C)[C@H](Cc2ccc(O)cc2)C(N)=O)C(C)(C)SSC1(C)C` [compound 16, MeCO-r-Pen(3)-N-T-7MeW-Cit-Pen(3)-AEF-2Nal-aMeL-E-N-k-NMeDTyr-CONH2] (Ac-[dR][Pen]NT[Trp(7-Me)][Cit][Pen][AEF][2Nal][αMeL]EN[dK][dNMeY]-NH2; disulfide 2-7) are 24 nM and 180 A^2.
Taken in the same sequence, the figures for `CC(=O)NCCCC[C@@H]1NC(=O)[C@H](Cc2c[nH]c3c(C)cccc23)NC(=O)[C@H]([C@@H](C)O)NC(=O)[C@H](CC(N)=O)NC(=O)[C@@H](NC(=O)CCOCCOCC[N+](C)(C)C)C(C)(C)SSC(C)(C)[C@@H](C(=O)N[C@@H](Cc2ccc(N=[N+]=[N-])cc2)C(=O)N[C@@H](Cc2ccc3ccccc3c2)C(=O)NC2(C(=O)N[C@@H](CCCCNC(C)=O)C(=O)N[C@@H](CC(N)=O)C(=O)N[C@@H](Cc3cccnc3)C(=O)N(C)CC(N)=O)CCOCC2)NC1=O` [compound 418, cPEG3aCO-Pen(3)-N-T-7MeW-K(Ac)-Pen(3)-F(4N3)-2Nal-THP-K(Ac)-N-3Pya-Sar-CONH2] ({Me3N+(CH2)2O(CH2)2O(CH2)2CO}-[Pen]NT[Trp(7-Me)]K(Ac)[Pen][Phe(4-N3)][2Nal][Thp]K(Ac)N[3Pal][Sar]-NH2; disulfide 1-6) were 1.2 nM and 166 A^2.
For `CC(=O)NCCCC[C@@H]1NC(=O)[C@H](Cc2c[nH]c3c(C)cccc23)NC(=O)[C@H]([C@@H](C)O)NC(=O)[C@H](CC(N)=O)NC(=O)[C@@H](NC(C)=O)C(C)(C)SSC(C)(C)[C@@H](C(=O)N[C@@H](Cc2ccc(OCC3CCC([N+](C)(C)C)CC3)cc2)C(=O)N[C@@H](Cc2ccc3ccccc3c2)C(=O)NC2(C(=O)N[C@@H](CCCCNC(C)=O)C(=O)N[C@@H](CC(N)=O)C(=O)N[C@@H](Cc3cccnc3)C(=O)N(C)CC(N)=O)CCOCC2)NC1=O` (single isomer, unassigned) [compound 531, MeCO-Pen(3)-N-T-7MeW-K(Ac)-Pen(3)-ACHMF(R*, S*)-2Nal-THP-K(Ac)-N-3Pya-Sar-CONH2], the IC50 on IL-23R amounted to 3.7 nM. The compound further showed an EPSA in data set [1] of 165.96 Å^2.
Turning to `CC(=O)N(C)CCCC[C@H](NC(=O)[C@H](C)NC(=O)[C@H](Cc1ccc2ccccc2c1)NC(=O)[C@H](Cc1ccc(OCCOCCOCC[N+](C)(C)C)cc1)NC(=O)[C@H]1NC(=O)[C@H](C)NC(=O)[C@H](Cc2c[nH]c3c(C)cccc23)NC(=O)[C@H]([C@@H](C)O)NC(=O)[C@H](C)NC(=O)[C@@H](NC(=O)CCOCCOCC[N+](C)(C)C)C(C)(C)SSC1(C)C)C(=O)N[C@@H](CC(N)=O)C(=O)N[C@@H](Cc1cccnc1)C(=O)N(C)CC(=O)N(C)C` [compound 468, cPEG3aCO-Pen(3)-A-T-7MeW-A-Pen(3)-APEG3f-2Nal-A-K(NMeAc)-N-3Pya-Sar-CON(Me)2] ({Me3N+(CH2)2O(CH2)2O(CH2)2CO}-[Pen]AT[Trp(7-Me)]A[Pen]Y(CH2CH2OCH2CH2OCH2CH2NMe3+)[2Nal]A[Lys(Me)](Ac)N[3Pal][Sar]-NMe2; disulfide 1-6), the IC50 on IL-23R is 25 nM. Also, the EPSA in data set [1] (read-out: EPSA) amounted to 151 A^2.
The corresponding values for `CC(=O)N(C)CCCCC(NC(=O)C1(NC(=O)[C@H](Cc2ccc3ccccc3c2)NC(=O)[C@H](Cc2ccc(OCCOCCOCC[N+](C)(C)C)cc2)NC(=O)[C@@H]2CCSC[C@H](NC(=O)CCOCCOCC[N+](C)(C)C)C(=O)N[C@@H](CC(=O)N(C)C)C(=O)N[C@@H]([C@@H](C)O)C(=O)N[C@@H](Cc3c[nH]c4c(C)cccc34)C(=O)N[C@@H](CCCCN(C)C(C)=O)C(=O)N2)CCOCC1)C(=O)N[C@@H](CC(N)=O)C(=O)N[C@@H](Cc1ccccc1)C(=O)N(C)CC(=O)N(C)C` (stereo partly drawn) [compound 475, cPEG3aCO-Abu(1)-N(N(Me)2)-T-7MeW-K(NMeAc)-C(1)-APEG3F-2Nal-THP-K(NMeAc)-N-F-Sar-CON(Me)2] ({Me3N+(CH2)2O(CH2)2O(CH2)2CO}-CD(NMe2)T[Trp(7-Me)][Lys(Me)](Ac)[Abu(4-yl)]Y(CH2CH2OCH2CH2OCH2CH2NMe3+)[2Nal][Thp][ξLys(Me)](Ac)NF[Sar]-NMe2; thioether 1-6) are 1540 nM and 153 A^2.
The corresponding values for `CC(=O)NCCCC[C@@H]1NC(=O)[C@H](Cc2c[nH]c3c(C)cccc23)NC(=O)[C@H]([C@@H](C)O)NC(=O)[C@H](CC(N)=O)NC(=O)[C@@H](NC(=O)[C@@H](CCCC[N+](C)(C)C)NC(C)=O)C(C)(C)SSC(C)(C)[C@@H](C(=O)N[C@@H](Cc2ccc(OCCCCC[N+](C)(C)C)cc2)C(=O)N[C@@H](Cc2ccc3ccccc3c2)C(=O)NC2(C(=O)N[C@@H](CCC(=O)O)C(=O)N[C@@H](CC(N)=O)C(=O)N[C@@H](Cc3cncc(C)c3)C(=O)N(C)CC(N)=O)CCOCC2)NC1=O` [compound 534, MeCO-k(Me)3-Pen(3)-N-T-7MeW-K(Ac)-Pen(3)-TMAPF-2Nal-THP-E-N-5MePyridinAla-Sar-CONH2] (Ac-[dLys(Me3)][Pen]NT[Trp(7-Me)]K(Ac)[Pen]Y(X3)[2Nal][Thp]EN[3Pal(5-Me)][Sar]-NH2; disulfide 2-7) are 2.1 nM and 172 A^2.
Taken in the same sequence, the figures for `CC(=O)N(C)CCCC[C@@H]1NC(=O)[C@H](Cc2c[nH]c3c(C)cccc23)NC(=O)[C@H]([C@@H](C)O)NC(=O)[C@H](C)NC(=O)[C@@H](NC(=O)CCOCCOCC[N+](C)(C)C)C(C)(C)SSC(C)(C)[C@@H](C(=O)N[C@@H](Cc2ccc(OCCCCC[N+](C)(C)C)cc2)C(=O)N[C@@H](Cc2ccc3ccccc3c2)C(=O)NC2(C(=O)N[C@@H](CCCCN(C)C(C)=O)C(=O)N[C@@H](CC(N)=O)C(=O)N[C@@H](Cc3cccnc3)C(=O)N(C)CC(=O)N(C)C)CCOCC2)NC1=O` [compound 496, cPEG3aCO-Pen(3)-a-T-7MeW-K(NMeAc)-Pen(3)-TMAPF-2Nal-THP-K(NMeAc)-N-3Pya-Sar-CON(Me)2] ({Me3N+(CH2)2O(CH2)2O(CH2)2CO}-[Pen]AT[Trp(7-Me)][Lys(Me)](Ac)[Pen]Y(X3)[2Nal][Thp][Lys(Me)](Ac)N[3Pal][Sar]-NMe2; disulfide 1-6) were 6 nM and 161 A^2.
